US20150322038A1, “PYRAZINE DERIVATIVES AND THEIR USE IN THE TREATMENT OF NEUROLOGICAL DISORDERS” (NOVARTIS AG, priority 2009, published 2015)

Tests used:
[1] = biological target: human BACE-1 (Homo sapiens, UniProt P56817); experiment: Test 1: Inhibition of human BACE-1; format: biochemical; settings: recombinant BACE-1, pH 4.5, fluorescence-quenched APP-derived peptide substrate
Method: Test 1: Inhibition of Human BACE-1
IC50 values are calculated from percentage of inhibition of BACE-1 activity as a function of the test compound concentration.

[2] = tested on: cellular release of amyloid peptide 1-40; experiment: Test 4: Inhibition of cellular release of amyloid peptide 1-40; format: cell-based; settings: Cricetulus griseus, Chinese hamster ovary cells transfected with the gene for amyloid precursor protein, 24 hours with compound, amyloid peptide 1-40 in supernatant, read-out: Bace IC50
Method: Test 4: Inhibition of Cellular Release of Amyloid Peptide 1-40
Chinese hamster ovary cells are transfected with the gene for amyloid precursor protein. The cells are plated at a density of 8000 cells/well into 96-well microtiter plates and cultivated for 24 hours in DMEM cell culture medium containing 10% FCS. The test compound is added to the cells at various concentrations, and the cells are cultivated for 24 hours in the presence of the test compound. The supernatants are collected, and the concentration of amyloid peptide 1-40 is determined using state of the art immunoassay techniques, for example sandwich ELISA, homogenous time-resolved fluorescence (HTRF) immunoassay, or electro-chemiluminescence immunoassay. The potency of the compound is calculated from the percentage of inhibition of amyloid peptide release as a function of the test compound concentration.

human BACE-1, sequence (P56817 46-457 limits assumed): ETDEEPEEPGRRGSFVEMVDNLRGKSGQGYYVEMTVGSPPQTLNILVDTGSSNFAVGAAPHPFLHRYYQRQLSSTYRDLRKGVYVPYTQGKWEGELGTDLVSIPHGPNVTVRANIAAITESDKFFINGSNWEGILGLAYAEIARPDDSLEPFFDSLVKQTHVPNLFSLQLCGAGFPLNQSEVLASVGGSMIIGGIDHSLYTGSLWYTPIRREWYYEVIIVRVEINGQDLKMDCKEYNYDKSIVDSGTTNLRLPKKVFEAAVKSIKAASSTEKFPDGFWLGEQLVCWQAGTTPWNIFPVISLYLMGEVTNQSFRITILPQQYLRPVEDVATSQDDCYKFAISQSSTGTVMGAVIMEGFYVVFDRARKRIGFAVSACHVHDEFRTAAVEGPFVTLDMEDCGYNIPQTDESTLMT

Structure (SMILES)	IC50 [1] [nM]	IC50 [2] [nM]
CC(=O)N1CC(N)=NC(c2cc(NC(=O)c3ncc(OC(F)F)cc3C)ccc2F)(C(F)F)C1 (stereo not shown) [Example 26, 5-Difluoromethoxy-3-methyl-pyridine-2-carboxylic acid [3-(4-acetyl-6-amino-2-difluoromethyl-2,3,4,5-tetrahydro-pyrazin-2-yl)-4-fluoro-phenyl]-amide]	23	44
NC1=N[C@@](c2cc(NC(=O)c3ncc(=O)[nH]c3N)ccc2F)(C(F)F)CNC1 [Example 29, 3-Amino-5-oxo-4,5-dihydro-pyrazine-2-carboxylic acid [3-((R)-6-amino-2-difluoromethyl-2,3,4,5-tetrahydro-pyrazin-2-yl)-4-fluoro-phenyl]-amide]	220	860
